Paper PMC12316777

Assays:
[1] = test system: SARS-CoV-2 variants Omicron BA.5.2 and XBB in VeroE6-TMPRSS2 cells; format: cell-based
[2] = target: T1, SARS-CoV-2 nsp13 (helicase) (Severe acute respiratory syndrome coronavirus 2, UniProt P0DTD1); assay: ATPase assay (phosphate release); format: biochemical; details: for IC50: 20 nM nsp13, n = 3, read-out: IC50 (± SD) ATPase
[3] = target: T1, SARS-CoV-2 nsp13 (helicase); assay: FRET DNA duplex unwinding assay; format: biochemical; details: for IC50: 20 nM nsp13, n = 3, read-out: IC50 (± SD) DNA unwinding
[4] = target: T2, SARS-CoV-2 nsp13 (Severe acute respiratory syndrome coronavirus 2, UniProt P0DTD1); assay: Metal displacement analysis (equilibrium dialysis, ICP-MS), nsp13; format: binding
Description: Nsp13 also consists of 3 zinc finger sites at its N-terminal zinc-binding domain. Therefore, we first investigated whether Au(I) could interact with zinc fingers in nsp13 by equilibrium dialysis.
Au(I) binding and Zn(II) release on nsp10 and nsp14 were determined by Inductively Coupled Plasma Mass Spectrometry (ICP-MS) on Agilent 7700 × ICP-MS (Agilent Technologies). […] Dialysis tubes loaded with 100 μL Zn-bound proteins (5 μM for nsp14 and nsp13 and 20 μM for nsp10) or protein buffer were placed into 50 mL dialysis buffer in the presence of different concentrations of Au(I) compounds (as Au(PEt3)Cl) with mild shaking at 18 °C overnight. The protein concentration was measured by bicinchoninic acid (BCA) assay, and the metal concentration of solution both inside and outside the dialysis tubes was determined by ICP-MS.

[5] = target: T2, SARS-CoV-2 nsp13; assay: BODIPY FL ATP-γ-S fluorescence assay (ATP binding); details: for fluorescence intensity of BODIPY FL ATP-γ-S with nsp13: 1 μM compound, 10 min pre-incubation, 10 nM BODIPY FL ATP-γ-S
[6] = target: T2, SARS-CoV-2 nsp13; assay: EMSA of nsp13 binding to dsDNA substrate; details: 2 μM nsp13, 0, 2, 10 and 20 μM compound, 2 h, 100 nM DNA
Description: We preincubated 2 μM nsp13 with different concentrations (0, 2, 10 and 20 μM) of Au(PEt3)Cl for 2 h at room temperature, then incubated with 100 nM DNA substrate to form the protein-dsDNA complex.
EMSA for investigating the binding between nsp13 and DNA substrates was performed as previously reported. Briefly, 2 μM nsp13 was incubated with Au(PEt3)Cl in a dose-dependent manner in 20 μL binding buffer (20 mM Tris pH 7.4, 20 mM NaCl, 1 mM TCEP, 5 mM MgCl2) for 2 h at 25 °C. Then, incubated per sample at 37 °C with 100 nM dsDNA. After 15 min incubation, the reaction was stopped by 4 μL loading buffer (50% glycerol, 0.02% bromophenol blue). The reaction mixture was electrophoresed in 8% native-polyacrylamide gels at 150 V for 1 h. The gel was stained by GelRed (Sigma Aldrich) for 10 min and images were captured by iBright™ CL750 Imaging System (Thermo Fisher Scientific).
Fig. S3 EMSA image of the binding between DNA substrate and nsp13 in the presence of increasing
amounts of Au(I)- based compound (as Au(PEt3)Cl).
(1 picture or pasted object on this page, not shown here)

Compound	IC50 [2] [µM]	inhibition of ATPase activity ([2]; 50 mol equiv of compound)	IC50 [3] [µM]	inhibition of DNA unwinding activity ([3]; 50 mol equiv of compound)	fluorescence intensity of BODIPY FL ATP-γ-S with nsp13 [5]	other results
CC(=O)OC[C@H]1O[C@@H]([S-])[C@H](OC(C)=O)[C@@H](OC(C)=O)[C@@H]1OC(C)=O.CCP(CC)CC.[Au+] [auranofin]	–	–	–	–	–	maximum reduction of viral load in the cell culture supernatant [1]: 4 − 6 log10 units
CCP(CC)CC.[Au+].[Cl-] [Au(PEt3)Cl, chloro(triethylphosphine)gold(I)]	0.4 ± 0.09	more than 50%	0.33 ± 0.04	more than 50%	decreased	Au(I) bound to nsp13 ([4]; equilibrium dialysis, ICP-MS): ca. 2.97 ± 0.20 mol equiv; Zn(II) release from nsp13 ([4]; equilibrium dialysis, ICP-MS): ca. 2.88 ± 0.18 mol equiv; maximal binding capacity (Bmax), nsp13 ([4]; nonlinear fit to specific binding plot): 3.33 ± 0.11; Kd ([4]; nonlinear fit to specific binding plot, read-out: dissociation constant (Kd), nsp13): 2.29 ± 0.22 µM; fluorescence intensity of BODIPY FL ATP-γ-S with nsp13, dose dependence ([5]; 0.1, 0.2, 0.5 and 1 μM): decreased in a dose-dependent manner; effect on binding of nsp13 to dsDNA [6]: did not disrupt
(1-(adamantan-1-yl)thiourea)-(triethylphosphine)-gold(I) [Au-amantadine]	1.15 ± 0.23	–	0.72 ± 0.13	–	decreased	–
[Cl][Au] [AuCl, gold(I) chloride]	0.2 ± 0.01	more than 50%	0.2 ± 0.03	more than 50%	decreased	–
O=S(=O)([O-])[S-].O=S(=O)([O-])[S-].[Au+].[Na+].[Na+].[Na+] [Na3Au(S2O3)2, gold(I) sodium thiosulfate]	0.25 ± 0.08	more than 50%	0.38 ± 0.05	more than 50%	decreased	–
CC[PH](CC)(CC)[Au][S]CC(NC(=O)CCC(N)C(=O)O)C(=O)NCC(=O)O [Au-GSH, ((R)-2-((S)-4-amino-4-carboxybutanamido)-3-((carboxymethyl)amino)-3-oxopropyl)thiolate)-(triethyl-phosphine)-gold(I)]	–	–	–	–	–	ATPase enzymatic activity remaining ([2]; 50 mol equiv of compound): 51.33%; DNA unwinding enzymatic activity remaining ([3]; 50 mol equiv of compound): 41.67%
